The target of one test is T1, VIM-2 (Escherichia coli, UniProt Q5U7L7).
T1 construct: made in house
Kind of test: biochemical. As to conditions: for remaining activity at 100 µM: read-out: % Residual activity versus VIM-2; for IC50: enethiols 6 assayed as sodium salts, 10 min incubation, read-out: IC50 VIM-2 (converted). On the procedure:
(§1) Inhibition analyses against bacterial MBLs and SBLs were performed as described previously.[22], [24], [26] Residual enzyme activities were determined for a range of inhibitor concentrations. Non-linear regression fitting of IC50 curves was carried out using a three-parameter dose–response curve in GraphPad Prism. Errors in IC50 values are expressed as: σ(logIC50)/logIC50×IC50
(§2) We first screened the inhibitors against a representative set of presently clinically important and other MBLs[22], comprising both Class B1 enzymes (NDM-1, New Delhi MBL-1; VIM-2, Verona integron–encoded MBL-2; BcII, Bacillus cereus II MBL; SPM-1, São Paulo MBL-1; IMP-1, imipenemase MBL-1) and the Class B2 MBL CphA (carbapenem hydrolysing MBL from Aeromonas hydrophila).[22] The latter MBL (CphA) only utilises one active site Zn(II) ion in catalysis, whilst the others normally use two Zn(II) ions. We also screened the inhibitors against a representative panel of SBLs from different classes (TEM-1, Temoneira β-lactamase-1, class A; CTX-M-15, cefotaxime hydrolysing β-lactamase from Munich 15, class A, extended spectrum β-lactamase (ESBL); AmpC E. coli, class C, and OXA-10, oxacillinase-10, class D).
Figure S6: IC50 curves for VIM-2 inhibition time courses. Residual activities were calculated from the
(§3) initial rate of FC5 hydrolysis after incubation of the enzyme with the inhibitor for 10 minutes. […]

In test [1] the test system is MBLs (SPM-1, IMP-1, BcII, VIM-2, NDM-1). Format: biochemical. As to conditions: for MBL inhibition, result in words: at 100 µM. On the procedure:
as §1, §2

A further test concerns the target T2, BcII (Bacillus cereus, UniProt P04190).
T2 construct: made in house
Kind of test: biochemical. To be noted: for remaining activity at 100 µM: read-out: % Residual activity versus BcII; for IC50: enethiols 6 assayed as sodium salts, 10 min incubation, read-out: IC50 BcII (converted). On the procedure:
as §1
(§4) We first screened the inhibitors against a representative set of presently clinically important and other MBLs[22], comprising both Class B1 enzymes (NDM-1, New Delhi MBL-1; VIM-2, Verona integron–encoded MBL-2; BcII, Bacillus cereus II MBL; SPM-1, São Paulo MBL-1; IMP-1, imipenemase MBL-1) and the Class B2 MBL CphA (carbapenem hydrolysing MBL from Aeromonas hydrophila).[22] The latter MBL (CphA) only utilises one active site Zn(II) ion in catalysis, whilst the others normally use two Zn(II) ions.
Figure S2: IC50 curves for BcII inhibition time courses. Residual activities were calculated from the initial
rate of FC5 hydrolysis after incubation of the enzyme with the inhibitor for 10 minutes. […]

A further test has as its target SPM-1 (Pseudomonas aeruginosa, UniProt Q8G9Q0). Kind of test: SPM-1 inhibition, fluorogenic cephalosporin (FC5) hydrolysis. To be noted: for remaining activity at 100 µM: read-out: % Residual activity versus SPM-1; for IC50: enethiols 6 assayed as sodium salts, 10 min incubation, read-out: IC50 SPM-1 (converted). In kind it is biochemical. On the procedure:
as §1, §4
Figure S5: IC50 curves for SPM-1 inhibition time courses. Residual activities were calculated from the
as §3

A further test addresses T3, NDM-1 (Klebsiella pneumoniae, UniProt C7C422).
T3 construct: made in house
Kind of test: NDM-1 inhibition, fluorogenic cephalosporin (FC5) hydrolysis. Format: biochemical. As to conditions: for remaining activity at 100 µM: read-out: % Residual activity versus NDM-1; for IC50: enethiols 6 assayed as sodium salts, 10 min incubation, read-out: IC50 NDM-1. As for the experimental part: as §1, §4
Figure S4: IC50 curves for NDM-1 inhibition time courses. Residual activities were calculated from the
as §3

Another test addresses T4, IMP-1 (Serratia marcescens, UniProt P52699).
T4 construct: made in house
Kind of test: IMP-1 inhibition, fluorogenic cephalosporin (FC5) hydrolysis. To be noted: for remaining activity at 100 µM: read-out: % Residual activity versus IMP-1; for IC50: enethiols 6 assayed as sodium salts, 10 min incubation, read-out: IC50 IMP-1 (converted). In kind it is biochemical. As for the experimental part: as §1, §4
Figure S3: IC50 curves for IMP-1 inhibition time courses. Residual activities were calculated from the
initial rate of FC5 hydrolysis after incubation of the enzyme with the inhibitor for 10 minutes.

A further test has as its target T5, CphA (Aeromonas hydrophila, UniProt P26918).
T5 construct: made in house
Kind of test: CphA (subclass B2 MBL) inhibition. In kind it is biochemical. On the procedure:
as §1, §2

The mark [2] stands for this setting: lower end of the range, read-out: IC50 values from (lowest across the MBL panel).

Structures are written as SMILES. Where two headings read alike, the source gives them in different places.

This is an account of results in publication PMC6008492, “Structure activity relationship studies on rhodanines and derived enethiol inhibitors of metallo-β-lactamases” (Bioorganic & Medicinal Chemistry, 2018).

Chain of SPM-1 (Q8G9Q0 entry or part of it): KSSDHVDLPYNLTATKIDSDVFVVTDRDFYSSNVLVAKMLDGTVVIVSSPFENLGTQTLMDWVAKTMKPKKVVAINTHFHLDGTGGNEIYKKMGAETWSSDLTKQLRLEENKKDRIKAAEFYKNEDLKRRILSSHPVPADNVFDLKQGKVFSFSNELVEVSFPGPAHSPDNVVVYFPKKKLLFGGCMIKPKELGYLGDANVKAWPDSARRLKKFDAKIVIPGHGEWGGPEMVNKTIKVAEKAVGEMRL
T3 sequence (C7C422 29-270, looked up, species assumed): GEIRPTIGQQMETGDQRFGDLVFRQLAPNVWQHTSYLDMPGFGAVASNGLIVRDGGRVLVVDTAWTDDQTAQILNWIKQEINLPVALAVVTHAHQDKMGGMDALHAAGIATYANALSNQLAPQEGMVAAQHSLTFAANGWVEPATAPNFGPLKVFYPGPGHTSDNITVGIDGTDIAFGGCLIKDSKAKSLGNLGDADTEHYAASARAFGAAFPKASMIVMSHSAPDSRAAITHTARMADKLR
T2 sequence (P04190 31-257): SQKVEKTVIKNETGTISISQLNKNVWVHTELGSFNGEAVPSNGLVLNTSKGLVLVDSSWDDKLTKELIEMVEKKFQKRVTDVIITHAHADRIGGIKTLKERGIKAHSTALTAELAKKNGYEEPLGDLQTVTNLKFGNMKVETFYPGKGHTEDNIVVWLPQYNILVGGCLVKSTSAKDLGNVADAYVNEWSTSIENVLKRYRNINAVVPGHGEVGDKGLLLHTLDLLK
T4 sequence (P52699 19-246, looked up, species assumed): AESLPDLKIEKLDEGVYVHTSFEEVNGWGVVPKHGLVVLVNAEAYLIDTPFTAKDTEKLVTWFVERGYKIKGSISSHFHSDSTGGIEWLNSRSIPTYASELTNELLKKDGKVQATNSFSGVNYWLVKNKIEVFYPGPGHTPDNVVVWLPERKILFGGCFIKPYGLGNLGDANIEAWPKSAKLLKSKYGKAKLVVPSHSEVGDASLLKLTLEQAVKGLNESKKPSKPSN
T5 sequence (P26918 28-254): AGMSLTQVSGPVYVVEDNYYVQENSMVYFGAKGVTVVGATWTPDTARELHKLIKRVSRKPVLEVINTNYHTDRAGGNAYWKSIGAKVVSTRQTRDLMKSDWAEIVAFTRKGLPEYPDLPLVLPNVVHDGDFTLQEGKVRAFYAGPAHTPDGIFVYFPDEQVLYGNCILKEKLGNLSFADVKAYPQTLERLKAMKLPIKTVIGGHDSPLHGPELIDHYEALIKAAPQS

Turning to `O=P(O)(O)C(O)c1ccc(Br)cc1F` (centres unmarked) [Compound 22], the remaining activity at 100 µM at VIM-2 came to 100%; at BcII, 98 ± 2%; on SPM-1 it was 92 ± 5%; on NDM-1, 100%; at IMP-1, 100%. Moreover, the “MBL inhibition, result in words” value in test [1] was “inactive”.
For orientation: IC50 means the point on the concentration scale where inhibition reaches its midpoint. With `Cc1cccc(C)c1/C=C(\S)C(=O)O` [Compound 6q], the concentration for half-maximal inhibition (IC50) at VIM-2 is 0.07 µM; in test [1] (setting [2]) it was 0.02 µM; in test [1] (upper end of the range, read-out: IC50 values to (highest across the MBL panel)), 4.9 µM; at BcII it was 0.2 µM; at SPM-1, 0.02 µM; on NDM-1, 4.9 µM. In addition, the IC50 on IMP-1 is 0.02 µM.
On to `CN1CCN(NC(=O)CN2C(=O)/C(=C/c3c(Cl)cccc3Cl)SC2=S)CC1` [Compound 5m], for which the IC50 on VIM-2 was 0.3 µM; against CphA, above 50 µM; at BcII, 0.2 µM; at SPM-1, 0.2 µM; at NDM-1 it was 28.4 µM; on IMP-1, 0.2 µM.
As to `CN1CCN(NC(=O)CN2C(=O)/C(=C/c3c(F)ccc(F)c3F)SC2=S)CC1` [Compound 5k], the IC50 at VIM-2 is 2.6 µM; in test [1] (SPM-1, IMP-1, BcII, VIM-2, read-out: IC50 values for all the tested B1 subclass MBLs, with the exception of NDM-1), below 3.5 µM; at BcII it was 3.5 µM; on SPM-1, 1.5 µM; at NDM-1, 40.1 µM; on IMP-1, 1.6 µM.
`O=C(O)/C(S)=C/c1cc(Cl)ccc1Cl` [Compound 6o]: the IC50 was 1.5 µM at VIM-2; 0.8 µM in test [1] (setting [2]); 1.6 µM at BcII; 0.8 µM on SPM-1; 45.3 µM at NDM-1; 4.7 µM on IMP-1.
In the case of `O=P(O)(O)C(S)c1ccc(Br)cc1F` (centres unmarked) [Compound 26], the remaining activity at 100 µM on VIM-2 stood at 100%; on BcII it was 100%; on SPM-1 it was 95 ± 6%; at NDM-1 it was 96 ± 3%; at IMP-1, 100%. In test [1], the “MBL inhibition, result in words” value was “inactive”.
Take `O=C(O)CN1C(=O)/C(=C/c2c(F)cccc2Cl)SC1=S` [Compound 3j]: the IC50 was 9.8 ± 2.8 µM at VIM-2; above 50 µM at BcII; 1.2 ± 0.3 µM at SPM-1; above 50 µM at NDM-1; 43.7 ± 0.5 µM at IMP-1.
As to `CC1=N/C(=C\c2ccc(F)cc2)C(=O)O1` [Compound 16], the remaining activity at 100 µM at VIM-2 (at 100 µM) stood at 100%; on BcII (at 100 µM), 92 ± 2%; on SPM-1 (at 100 µM) it was 87 ± 1%; on NDM-1 (at 100 µM) it was 97 ± 2%; at IMP-1 (at 100 µM), 100%. In addition, the “MBL inhibition, result in words” value in test [1] is “near inactive”.
Take `O=C(O)/C(S)=C/c1cccc(Cl)c1Cl` [Compound 6n]: the IC50 at VIM-2 is 1.3 µM; in test [1] (setting [2]), 0.2 µM; on BcII, 1 µM; at SPM-1 it was 0.2 µM; at NDM-1 it was 46.5 µM; on IMP-1 it was 1 µM.
As for `CN1CCN(NC(=O)CN2C(=O)/C(=C/c3c(F)cccc3F)SC2=S)CC1` [Compound 5p], the IC50 was 41.7 µM on VIM-2; 3 µM on BcII; 1.3 µM on SPM-1; above 50 µM at NDM-1; 1.3 µM on IMP-1.
Regarding `CN1CCN(NC(=O)CN2C(=O)/C(=C/c3ccc(F)cc3)SC2=S)CC1` [Compound 5c], the half-maximal inhibitory concentration (IC50) on VIM-2, on BcII, at SPM-1, on NDM-1 and on IMP-1 was above 50 µM in each case.
For `CN1CCN(NC(=O)CN2C(=O)/C(=C/c3ccccc3I)SC2=S)CC1` [Compound 5i], the half-inhibitory concentration (IC50) is 37.6 µM at VIM-2; above 50 µM at BcII; 8.8 µM at SPM-1; above 50 µM at NDM-1; 37.1 µM at IMP-1.
Turning to `O=C(O)CN1C(=O)/C(=C/c2ccccc2Br)SC1=S` [Compound 3h], the IC50 on VIM-2 is above 50 µM; at BcII, above 50 µM; on SPM-1, 36.6 ± 0.8 µM; on NDM-1 it was above 50 µM; on IMP-1, 32.5 ± 1.3 µM.
For the molecule `O=C(O)CN1C(=O)/C(=C/c2ccccc2Cl)SC1=S` [Compound 3g], the half-inhibitory concentration (IC50) on VIM-2 was 6.7 ± 0.2 µM; at BcII, above 50 µM; on SPM-1 it was 25.1 ± 1.5 µM; on NDM-1, above 50 µM; at IMP-1 it was 43.2 ± 2.1 µM.
Take `Cc1ccc(/C=C2\SC(=S)N(CC(=O)O)C2=O)cc1` [Compound 3b]: the IC50 on VIM-2 is 32 ± 0.7 µM; at BcII it was above 50 µM; on SPM-1 it was above 50 µM; at NDM-1 it was above 50 µM; on IMP-1, above 50 µM.
On to `COc1ccc(/C=C(\S)C(=O)O)cc1` [Compound 6e], for which the IC50 at VIM-2 is 0.4 µM; on BcII, 2.4 µM; at SPM-1, 0.6 µM; at NDM-1, 8.2 µM; at IMP-1, 0.8 µM.
On the same counts, the results for `O=C(O)CN1C(=O)/C(=C/c2c(F)ccc(F)c2F)SC1=S` [Compound 3k] are 47.6 ± 0.4 µM, 27 ± 2.2 µM, 8.8 ± 0.3 µM, above 50 µM and 46.5 ± 0.7 µM.
Take `O=C(O)/C(O)=C/c1ccc(F)cc1` [Compound 17]: the remaining activity at 100 µM at VIM-2 (at 100 µM) came out at 100%; on BcII (at 100 µM), 90 ± 3%; at SPM-1 (at 100 µM) it was 93 ± 2%; on NDM-1 (at 100 µM), 97 ± 4%; at IMP-1 (at 100 µM), 100%. Also, the “MBL inhibition, result in words” value in test [1] is “near inactive”.
Turning to `COc1ccc(/C=C2\SC(=S)N(CC(=O)NN3CCN(C)CC3)C2=O)cc1` [Compound 5e], the IC50 on VIM-2 was above 50 µM; on BcII it was above 50 µM; at SPM-1, above 50 µM; on NDM-1, 48.9 µM; on IMP-1, 31.5 µM.
Take `COc1ccc(/C=C2\SC(=S)N(CC(=O)O)C2=O)cc1` [Compound 3e]: the IC50 on VIM-2, on BcII, on SPM-1, on NDM-1 and on IMP-1 was above 50 µM each time.
Regarding `O=C(O)/C(S)=C/c1ccccc1F` [Compound 6f], the IC50 at VIM-2 is 3.3 µM; on BcII, 4 µM; at SPM-1 it was 0.3 µM; at NDM-1, 12.9 µM; on IMP-1 it was 1.4 µM.
On the same counts, the results for `O=C(O)/C(S)=C/c1c(F)cccc1Cl` [Compound 6j] are 0.05 µM, 0.06 µM, 0.0043 µM, 4.4 µM and 0.03 µM.
On the same counts, the results for `CN1CCN(NC(=O)CN2C(=O)/C(=C/c3ccccc3Cl)SC2=S)CC1` [Compound 5g] are 2 µM, above 50 µM, 9.8 µM, above 50 µM and 7.6 µM.
With `O=C(O)/C(S)=C/c1c(F)cccc1F` [Compound 6p], the IC50 at VIM-2 is 0.2 µM; in test [1] (setting [2]), 0.06 µM; on BcII it was 0.1 µM; at SPM-1, 0.06 µM; on NDM-1, 21.5 µM; on IMP-1 it was 0.2 µM.
